# In ChEMBL document CHEMBL1201862, “PubChem BioAssay data set” (2004):
#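 1) Cells in 96-well plates. 2) Compound, 48 h, 5 concentrations. 3) Linear interpolation between surrounding doses. 4) Unreached endpoint = highest concentration. GI50 = concentration required for 50% inhibition of growth.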 Activity calls are given as the source filed them. Cut-off read from the data, not from the text of the source: active = GI50 up to about 1.1 µM and inactive = higher.
# Tests used:
# Experiment in all cases: DTP human tumour cell line panel, 48 h
# [1] = test system: A498
# [2] = test system: CCRF-CEM
# [3] = test system: HCC 2998
# [4] = test system: HT-29
# [5] = test system: Hs-578T
# [6] = test system: K562
# [7] = test system: LOX IMVI
# [8] = test system: M14
# [9] = test system: MDA-N
# [10] = test system: MOLT-4
# [11] = test system: NCI-H226
# [12] = test system: OVCAR-4
# [13] = test system: OVCAR-5
# [14] = test system: SF-539
# [15] = test system: SK-MEL-28
# [16] = test system: SK-MEL-2
# [17] = test system: SNB-19
# [18] = test system: SR
# [19] = test system: UACC-257
# [20] = test system: UO-31
SMILES,GI50 [1],GI50 [2],GI50 [3],GI50 [4],GI50 [5],GI50 [6],GI50 [7],GI50 [8],GI50 [9],GI50 [10],GI50 [11],GI50 [12],GI50 [13],GI50 [14],GI50 [15],GI50 [16],GI50 [17],GI50 [18],GI50 [19],GI50 [20]
CCCC(c1cc(C(C)(C)C)c(O)cc1C)c1cc(C(C)(C)C)c(O)cc1C,2.05 µM (inactive),2.71 µM (inactive),1.75 µM (inactive),6.65 µM (inactive),2.79 µM (inactive),2.23 µM (inactive),1.87 µM (inactive),2.09 µM (inactive),1.87 µM (inactive),2.16 µM (inactive),2.3 µM (inactive),5.13 µM (inactive),2.13 µM (inactive),2.39 µM (inactive),3.48 µM (inactive),2.6 µM (inactive),4.99 µM (inactive),2.26 µM (inactive),2.31 µM (inactive),3.33 µM (inactive)
O=C1C(Cl)=C(N2CCN(c3ccccn3)CC2)C(=O)c2ncccc21,11.3 µM (inactive),0.745 µM (active),16.7 µM (inactive),3.13 µM (inactive),2.49 µM (inactive),1.33 µM (inactive),1.61 µM (inactive),1.6 µM (inactive),1.76 µM (inactive),1.38 µM (inactive),5.68 µM (inactive),1.87 µM (inactive),7.87 µM (inactive),2.05 µM (inactive),2.24 µM (inactive),1.87 µM (inactive),12.5 µM (inactive),0.757 µM (active),1.7 µM (inactive),1.77 µM (inactive)
C[C@H](CCc1nc(C#N)c(N)o1)[C@H]1CC[C@H]2[C@@H]3[C@@H](O)CC4C[C@@H](O)CC[C@]4(C)[C@H]3C[C@@H](O)[C@]12C (stereo not given in full),39.1 µM (inactive),0.498 µM (active),19.1 µM (inactive),20.2 µM (inactive),20.5 µM (inactive),23.1 µM (inactive),12.1 µM (inactive),29 µM (inactive),25.9 µM (inactive),15 µM (inactive),21.2 µM (inactive),1.99 µM (inactive),23.3 µM (inactive),17.9 µM (inactive),25.6 µM (inactive),19.9 µM (inactive),23.9 µM (inactive),17 µM (inactive),19.7 µM (inactive),20.6 µM (inactive)
O=C(c1ccccc1)N1N=C(C(F)(F)F)CC1(O)C(F)(F)F (stereo not given),> 100 µM (inactive),> 100 µM (inactive),> 100 µM (inactive),> 100 µM (inactive),> 100 µM (inactive),> 100 µM (inactive),> 100 µM (inactive),> 100 µM (inactive),> 100 µM (inactive),> 100 µM (inactive),> 100 µM (inactive),> 100 µM (inactive),> 100 µM (inactive),> 100 µM (inactive),> 100 µM (inactive),> 100 µM (inactive),> 100 µM (inactive),> 100 µM (inactive),> 100 µM (inactive),> 100 µM (inactive)
COc1ccc2c3c1OC1C(=O)C=CC4(O)C(C2)NCC[C@@]314 (stereo not given in full),3.29 µM (inactive),0.574 µM (active),2.1 µM (inactive),2.54 µM (inactive),2.19 µM (inactive),2.51 µM (inactive),1.91 µM (inactive),2.3 µM (inactive),1.26 µM (inactive),1.28 µM (inactive),8.75 µM (inactive),2.62 µM (inactive),2.46 µM (inactive),1.55 µM (inactive),2.92 µM (inactive),2.4 µM (inactive),5.55 µM (inactive),1.76 µM (inactive),1.77 µM (inactive),2.1 µM (inactive)
C/C(=N\NC(=S)NC(C)C)c1nc2cccnc2[nH]1,> 47.6 µM (inactive),2.88 µM (inactive),19.4 µM (inactive),12.8 µM (inactive),23.9 µM (inactive),4.48 µM (inactive),30.2 µM (inactive),57.9 µM (inactive),> 100 µM (inactive),9.95 µM (inactive),9.25 µM (inactive),6.15 µM (inactive),28.8 µM (inactive),> 37.9 µM (inactive),> 100 µM (inactive),18.7 µM (inactive),30.9 µM (inactive),11.7 µM (inactive),34.6 µM (inactive),3.78 µM (inactive)
CC(C)(C)OC(=O)NCC(CNC(=O)OC(C)(C)C)c1nc(C(N)=O)cs1,> 100 µM (inactive),> 100 µM (inactive),> 100 µM (inactive),> 100 µM (inactive),> 100 µM (inactive),> 100 µM (inactive),> 100 µM (inactive),> 100 µM (inactive),> 100 µM (inactive),> 100 µM (inactive),> 100 µM (inactive),> 100 µM (inactive),> 100 µM (inactive),> 100 µM (inactive),> 100 µM (inactive),> 100 µM (inactive),> 100 µM (inactive),> 100 µM (inactive),> 100 µM (inactive),> 100 µM (inactive)
C[C@H]1C=C2[C@@H]3CC(C)(C(=O)O)CC[C@]3(C)CC[C@]2(C)[C@]2(C)CC[C@H]3C(C)(C)[C@@H](OC(=O)c4cccc5c(=O)c6ccccc6[nH]c45)CC[C@]3(C)[C@@H]12 (stereo not given in full),79.1 µM (inactive),38 µM (inactive),88.7 µM (inactive),> 100 µM (inactive),> 100 µM (inactive),54.5 µM (inactive),57 µM (inactive),61 µM (inactive),59.8 µM (inactive),> 100 µM (inactive),24 µM (inactive),80.4 µM (inactive),> 100 µM (inactive),> 100 µM (inactive),53.3 µM (inactive),> 100 µM (inactive),> 100 µM (inactive),66.8 µM (inactive),29.7 µM (inactive),70 µM (inactive)
COC(=O)c1c(O)ccc2c1c1cc3ccccc3cc1n2Cc1cc(OC)cc(OC)c1,9.02 µM (inactive),1.66 µM (inactive),3.88 µM (inactive),11 µM (inactive),2.45 µM (inactive),1.96 µM (inactive),9.31 µM (inactive),2.25 µM (inactive),0.43 µM (active),21.7 µM (inactive),14.9 µM (inactive),9.84 µM (inactive),9.64 µM (inactive),1.86 µM (inactive),1.66 µM (inactive),1.22 µM (inactive),5.82 µM (inactive),1.04 µM (active),9.73 µM (inactive),3.17 µM (inactive)
CN(C)c1ccc(/C=C/C(=O)c2cc(C(C)(C)C)c(O)c(C(C)(C)C)c2)cc1,1.91 µM (inactive),1.01 µM (active),1.64 µM (inactive),1.03 µM (active),2.72 µM (inactive),0.979 µM (active),2.06 µM (inactive),1.15 µM (inactive),0.249 µM (active),3.85 µM (inactive),1.85 µM (inactive),1.98 µM (inactive),2.99 µM (inactive),0.625 µM (active),> 60 µM (inactive),1.08 µM (active),3.73 µM (inactive),0.546 µM (active),0.321 µM (active),1.61 µM (inactive)
Cc1cc(=O)oc2cc(OC(=O)N(CCCl)CCCl)ccc12,> 100 µM (inactive),90.4 µM (inactive),> 100 µM (inactive),> 100 µM (inactive),> 100 µM (inactive),68.5 µM (inactive),59.8 µM (inactive),> 100 µM (inactive),> 100 µM (inactive),82.6 µM (inactive),> 100 µM (inactive),> 100 µM (inactive),> 100 µM (inactive),> 100 µM (inactive),> 100 µM (inactive),> 100 µM (inactive),> 100 µM (inactive),63.2 µM (inactive),> 100 µM (inactive),> 100 µM (inactive)
